US9969755B2, “Photodynamic therapy photosensitizers” (The Royal Institution for the Advancement of …, priority 2016, dated 2018)
Like-named read-outs stand apart in the source and are kept apart here.

Legend:
[1] = reference value; cited from earlier work
[2] = tested on: E. coli ATCC 25922; assay: Antibacterial photodynamic inactivation, regular vs hydrogen peroxide stressed bacteria (CFU counts); type: cell-based; details: in the dark; 7 with or without H2O2
Experimental: The microorganism used for this study is E. coli ATCC 25922. Stock cultures were preserved at −70° C. using glycerol 10% (v/v) as the cryoprotectant, and the strain was grown in Luria Bertania broth (LB). Bacterial culture was prepared inoculating a single colony from a pure culture. After overnight incubation at 37° C. for 18 h, the culture reached a density of approximately 1×10^9 CFU/mL and it was diluted to 10^6 CFU/mL.
At the end of the irradiation time, 100 μL aliquots were placed in 96 wells from each tube and serially diluted 10-fold in PBS to obtain dilutions of 10^1 to 10^4 fold, in addition to the original concentration, on agar plates to determine CFU. Viability counts were performed at 0 and 1 hour in either dark or light conditions from each dilution, 10 μL aliquots were plated on LB agar. Plates were streaked in triplicate and incubated for 18 h at 37° C. Each experiment was performed at least three times on different days.
To stress the cells we utilized hydrogen peroxide, known to stimulate ROS production in Gram-negative cells.^79,80 We incubated bacteria from the E. coli strain (10^6 colony forming units (CFU)/mL) with 500 nM hydrogen peroxide for 2 hours at 37° C. Following precipitation and resuspension of this bacteria in media with no H2O2, we added compound 7. In parallel, compound 7 was also added to bacteria that were not exposed to H2O2.

[3] = Intermolecular quenching of ^1O2 phosphorescence by chromanol rings; type: physicochemical; details: ^1O2 generated upon irradiation of compound 5, air equilibrated acetonitrile
Description: To test whether 7 is equally efficient at deactivating ^1O2 as α-tocopherol, we generated ^1O2 upon irradiation of compound 5 and monitored the ^1O2 phosphorescence lifetime in the presence of increasing amounts of either 7 or PMHC (an α-tocopherol analogue lacking the phytyl tail).

[4] = cited from earlier work; for overall singlet oxygen quenching rate constant kq: kq(physical)+kq(chemical), reference 74; for chemical quenching of ^1O2 / physical quenching of ^1O2: share of total quenching
[5] = cited from earlier work; for abs λmax / em λmax / Φf (fluorescence quantum yield) / ε (extinction coefficient): acetonitrile, room temperature, from reference 31; for E00 (HOMO-LUMO gap): from reference 54 (1) or 31 (2)
[6] = acetonitrile, room temperature; from reference 31; cited from earlier work
[7] = cited from earlier work; for E^oB^+·/B (reversible oxidation potential): from reference 54 (1) or 31 (2)
[8] = from reference 54 (1) or 31 (2); cited from earlier work
[9] = from reference 54 (1) or 31 (2); cited from earlier work; remark: listed apart in the source
[10] = Absorption and steady-state fluorescence, fluorescence quantum yield in acetonitrile; type: physicochemical
Experimental: Absorption spectra were recorded using a Hitachi U-2800 UV-vis-NIR spectrophotometer. Luminescence spectra were recorded using a PTI QuantaMaster spectrofluorimeter using 10×10 mm quartz cuvettes and corrected for detector sensitivity.
The steady-state fluorescence spectra were recorded between 500-800 nm (depending on each compound) upon exciting at the wavelength of the absorbance maxima. The excitation and emission slits were tuned according to the fluorescence quantum yield of each BODIPY (i.e. for compound 7 excitation slits were 5 nm and for compound 4 we used 2 nm). Fluorescence was recorded every 1 nm using 0.1 s integration time. For the Fluorescence lifetime measurements, the excitation rate was 10 MHz, and the detection frequency was less than 100 kHz. Photons were collected at the magic angle. The fluorescence decay traces were fit using FluoFit (Picoquant) software. For steady-state and time-resolved fluorescence measurements a quartz cuvette with a 10 mm path length was used and all the solutions were prepared in air equilibrated acetonitrile.
Quantum yields of fluorescence were measured using PM605 in acetonitrile as a reference. Absorption and emission spectra of PM605 and the dye of interest were measured in acetonitrile at five different concentrations. The integrated intensity versus absorbance were then plotted and fitted linearly. Relative quantum yields of fluorescence for the unknown with respect to the standard were obtained from equation 1, where φ, Δ, and n refer, respectively, to the quantum yield, the slope obtained from the above-mentioned plot, and the solvent refractive index for the unknown (x) or standard (st).

[11] = Time-resolved fluorescence (fluorescence lifetime, TCSPC); type: physicochemical; details: acetonitrile, room temperature
Experimental: Fluorescence lifetime measurements were carried out using a Picoquant Fluotime 200 time correlated single photon counting (TCSPC) setup employing an LDH-P-C-470 picosecond diode laser (Picoquant) with an excitation wavelength at 466 nm as the excitation source. The laser was controlled by a PDL 800 B picosecond laser driver from Picoquant. ^1HNMR spectra were recorded on a Bruker AV 400 instrument at 400 MHz. ^13CNMR spectra were recorder on a Varian VNMRS 500 instrument at 125 MHz. ESI mass spectra were measured on a Bruker maXis impact. Laser Flash Photolysis (LFP) experiments were carried out in a commercially available Luzchem 212 LFP setup provided with a Tektronix TDS 2000 digitizer for signal capture. A Nd:Yag laser (Continuum model Surelite I-10 using a second harmonic generators, model number SL-SHG-T1) was used for excitation at a wavelength of 532 nm. Phosphorescence experiments were recorded using a Cary Eclipse Fluorescence Spectrophotometer. Singlet Oxygen phosphorescence was recorded with a Hamamatsu NIR detector (peltier cooled at −62.8° C. operating at 800 V, coupled to a grating monochromator) upon excitation with a 532 nm Nd:YAG laser. A customized Luzchem Research LFP-111 system was employed to collect and process the data. The steady-state fluorescence spectra were recorded between 500-800 nm (depending on each compound) upon exciting at the wavelength of the absorbance maxima. The excitation and emission slits were tuned according to the fluorescence quantum yield of each BODIPY (i.e. for compound 7 excitation slits were 5 nm and for compound 4 we used 2 nm). Fluorescence was recorded every 1 nm using 0.1 s integration time. For the Fluorescence lifetime measurements, the excitation rate was 10 MHz, and the detection frequency was less than 100 kHz. Photons were collected at the magic angle. The fluorescence decay traces were fit using FluoFit (Picoquant) software. For steady-state and time-resolved fluorescence measurements a quartz cuvette with a 10 mm path length was used and all the solutions were prepared in air equilibrated acetonitrile.

[12] = Laser flash photolysis: triplet excited state decay and quenching; type: physicochemical
Experimental: The 500 mJ/pulse laser output was attenuated yielding 10 mJ laser pulses of 6 ns in duration. Samples were prepared in acetonitrile. The final absorbance of the BODIPY dyes was 0.1. The concentration was kept low to avoid triplet-triplet annihilation. Each sample was de-oxygenated by purging with argon gas for at least 30 min. Quartz cells containing 10×10 mm path length were used. The decay of the BODIPYs was monitored between 420-440 and 520-550 nm (depending the BODIPY) following the laser excitation. Samples were irradiated with a total of 6 laser shots to acquire the temporal evolution of ΔOD.
A second layer of control was subsequently tested via LFP studies, to monitor the extent to which the trap segment deactivates the triplet excited state of the photosensitizes. […] The two quenchers emulate the trap segments utilized in 7 and 8, respectively.

[13] = ^1O2 quantum yield, photooxidation of DMA (indirect method); type: physicochemical; details: consumption of dimethylanthracene, Rose Bengal standard, air equilibrated acetonitrile
Experimental: Solutions of 9,10-dimethylanthracene (DMA, 50 μM) and photosensitizers (compound 3-10) in air equilibrated acetonitrile were irradiated in 10 mm path length quartz cell (3 ml) with a Nd:Yag laser exciting at 532 nm. Laser excitation was performed at 10 Hz, providing one laser output for every discharge of the flashlamp. An irradiation time of 1 s is equivalent to 10 laser pulses. The energy of each pulse was 10 mJ. The kinetics of DMA photooxidation were studied by following the decrease of the absorbance at λ=377 nm. The observed rate constant (kobs) was obtained by a linear least-squares fit of the semilogarithmic plot of ln [DMA]0/[DMA] (see FIG. 14). Quantum yields of ^1O2 production (φΔ^I) were calculated comparing the kobs=kq [^1O2] for the corresponding photosensitizer with that for Rose Bengal, which was used as a reference (φΔ=0.54).^1 Measurements of the sample and the reference under the same conditions afforded φΔ^I for compounds (3-10) by direct comparison of the slope in the linear region of the plots.
For the indirect detection of ^1O2, it is possible to determine the kq value considering that the production of ^1O2 is constant compare with the initial concentration of DMA. According to these, a pseudo first-order kinetic for this reaction is proposed (equations 2 to 5): […]
The conversion of DMA followed pseudo-first order kinetics with the different photosensitizers (see FIG. 14). From equation 5, it was possible to determine kobs and ^1O2.

[14] = ^1O2 quantum yield and lifetime, ^1O2 phosphorescence at 1270 nm (direct method); type: physicochemical
Experimental: The generation of singlet oxygen and its lifetime were determined from ^1O2 phosphorescence decay curves recorded at 1270 nm upon excitation with a 532 nm Nd:YAG laser. A total of 3 laser shots were applied to acquire a trace. […] Quantum yield of ^1O2 production (φΔ^D) were calculated comparing the intensity of ^1O2 phosphorescence at 1270 nm for the corresponding photosensitizer with that recorded for Rose Bengal (φΔ=0.54).^81

O=C([O-])c1c(Cl)c(Cl)c(Cl)c(Cl)c1-c1c2cc(I)c(=O)c(I)c-2oc2c(I)c([O-])c(I)cc12.[Na+].[Na+] [Rose Bengal]
φΔ of reference standard [1]: 0.54

OO [Compound H2O2, hydrogen peroxide, reference compound]
colony forming units, dark controls [2]: no effect in the CFU

Cc1c(C)c2c(c(C)c1O)CCC(C)(C)O2 [PMHC, 2,2,5,7,8-pentamethyl-6-hydroxy-chroman]
singlet oxygen quenching rate constant kq [3]: 4e+08 M⁻¹ s⁻¹ | overall singlet oxygen quenching rate constant kq [4]: 1.96e+08 M⁻¹ s⁻¹ | chemical quenching of ^1O2 [4]: 5% | physical quenching of ^1O2 [4]: 95%

CC1=CC(C)=[N+]2C1=C(C)c1c(C)cc(C)n1[B-]2(F)F [Compound 1, 1,3,5,7,8-pentamethyl-Pyrromethene Fluoroborate]
abs λmax [5]: 491 nm | em λmax [5]: 498 nm | Φf (fluorescence quantum yield) [5]: 0.81 ± 0.02 | ε (extinction coefficient) [5]: 97000 M⁻¹ cm⁻¹ | E00 (HOMO-LUMO gap) [5]: 2.53 eV | kdec (fluorescence decay rate constant) [6]: 17.8 ± 0.1 × 10^7 s^−1 | knr (non-radiative decay rate constant) [6]: 3.3 ± 0.1 × 10^7 s^−1 | krad (radiative rate constant) [6]: 14.4 ± 0.1 × 10^7 s^−1 | E^oB^+·/B (reversible oxidation potential) [7]: 0.77 | εHOMO [8]: −5.36 ± 0.01 eV | εLUMO [8]: −2.31 ± 0.05 eV | ΔGeT (Singlet), Gibbs free energy for PeT [9]: −0.26 eV

Cc1c(C)c2c(c(C)c1O)CC[C@@](C)(CCC[C@H](C)CCC[C@H](C)CCCC(C)C)O2 [α-tocopherol]
overall singlet oxygen quenching rate constant kq [4]: 2.06e+08 M⁻¹ s⁻¹ | chemical quenching of ^1O2 [4]: 7% | physical quenching of ^1O2 [4]: 93%

CC1=C(I)C(C)=[N+]2C1=C(COC(=O)C1(C)CCc3c(C)c(O)c(C)c(C)c3O1)c1c(C)c(I)c(C)n1[B-]2(F)F (racemic) [Compound 8, 8-((±)-6-Hydroxy-2,5,7,8-tetramethylchromane-2-carbonyloxy)-2,6-diiodo-methyl-1,3,5,7-tetramethylpyrromethene Fluoroborate]
drop in φf caused by the trap segment ([10]; 7 compared to reference 4, 8 compared to 5): ca. 2 fold | abs λmax ([10]; acetonitrile, room temperature): 552 nm | em λmax ([10]; acetonitrile, room temperature): 576 nm | Φf (fluorescence quantum yield) ([10]; acetonitrile, room temperature): 0.009 ± 0.002 | ε (extinction coefficient) ([10]; acetonitrile, room temperature): 63000 M⁻¹ cm⁻¹ | kdec (fluorescence decay rate constant) [11]: 555.6 ± 0.6 × 10^7 s^−1 | knr (non-radiative decay rate constant, (1−φf)×kdec) [11]: 551.0 ± 0.5 × 10^7 s^−1 | krad (radiative rate constant, φf×kdec) [11]: 5.0 ± 0.1 × 10^7 s^−1 | increase in kT upon covalent attachment of the chromanol ([12]; 8 compared to its precursor 5): 6 fold | kq (triplet quenching rate constant) Q = PMHC ([12]; Ar saturated acetonitrile): 5.90 ± 0.09 × 10^8 M^−1s^−1 | kT (triplet decay rate constant) Air equilibrated ([12]; acetonitrile, air equilibrated): 4.55 ± 0.02 × 10^6 s^−1 | kT (triplet decay rate constant) Argon Purged ([12]; acetonitrile, argon purged): 9.16 ± 0.05 × 10^4 s^−1 | kq (triplet quenching rate constant) Q = ^3O2 ([12]; acetonitrile, calculated with oxygen solubility 2.42 mM): 1.88 ± 0.02 × 10^9 M^−1s^−1 | ΦΔ^I (singlet oxygen quantum yield, indirect) [13]: 0.46 ± 0.03 | φΔ relative to control compound 5 [14]: ca. ½ | ΦΔ^D (singlet oxygen quantum yield, direct) ([14]; ^1O2 phosphorescence at 1270 nm, air equilibrated acetonitrile): 0.57 ± 0.02 | ^1O2 phosphorescence decay lifetime ([14]; upon photosensitization, air equilibrated acetonitrile): 70 μs

CC(=O)OCC1=C2C(C)=CC(C)=[N+]2[B-](F)(F)n2c(C)cc(C)c21 [Compound 2, 8-Acetoxymethyl-1,3,5,7-tetramethyl Pyrromethene Fluoroborate]
abs λmax [5]: 515 nm | em λmax [5]: 530 nm | Φf (fluorescence quantum yield) [5]: 0.87 ± 0.02 | ε (extinction coefficient) [5]: 81000 M⁻¹ cm⁻¹ | E00 (HOMO-LUMO gap) [5]: 2.38 eV | kdec (fluorescence decay rate constant) [6]: 15.0 ± 0.2 × 10^7 s^−1 | knr (non-radiative decay rate constant) [6]: 2.0 ± 0.1 × 10^7 s^−1 | krad (radiative rate constant) [6]: 13.1 ± 0.2 × 10^7 s^−1 | E^opc (cathodic peak potential) ([7]; from reference 31): −1.44 | E^oB^+·/B (reversible oxidation potential) [7]: 0.75 | εHOMO [8]: −5.49 ± 0.01 eV | εLUMO [8]: −2.61 ± 0.05 eV | ΔGeT (Singlet), Gibbs free energy for PeT [9]: −0.24 eV
